For seven molecules, GI50 and TGI results are on record in PubChem BioAssay (NCI).

Among the test systems are BT-549 breast; LOX IMVI melanoma; 786-0 renal; T-47D breast; SR leukemia; ACHN renal; NCI/ADR-RES ovarian; HS 578T breast; SF-268 CNS; MDA-MB-231 breast.
Common to all, as to assay: inhibition of tumour cell growth, NCI panel, 48 h

SMILES strings stand for the structures.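 48-hour exposure; five concentrations; linearly interpolated endpoints. At the GI50, growth is halved. TGI marks complete inhibition of growth.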

Take `O=c1c2ccccc2sc2c(NCCCNCCO)nc3ccccc3c12`: the GI50 in the experiment with BT-549 breast is 2.81 µM; in the experiment with LOX IMVI melanoma, 1.28 µM; in the experiment on 786-0 renal, 1.49 µM; in the experiment on T-47D breast it was 1.99 µM; in the experiment on SR leukemia, 1.6 µM; with ACHN renal, 1.39 µM. Also, the GI50 in the experiment with NCI/ADR-RES ovarian is 1.86 µM; in the experiment with HS 578T breast, 1.67 µM; in the experiment with SF-268 CNS it was 1.69 µM; in the experiment with MDA-MB-231 breast, 1.13 µM. Also, the TGI in the experiment on BT-549 breast came to 11.1 µM; in the experiment with LOX IMVI melanoma it was 2.82 µM; in the experiment on 786-0 renal, 2.92 µM; in the experiment on T-47D breast, 4.38 µM; with SR leukemia, 4.55 µM; in the experiment on ACHN renal, 2.81 µM. The TGI was found to be 4.56 µM with NCI/ADR-RES ovarian, 5.65 µM with HS 578T breast, 4.24 µM in the experiment with SF-268 CNS and 2.63 µM with MDA-MB-231 breast.

As to `CC(C)(C)C(=O)OCOP(=O)(NCc1ccccc1)C1CCCN(O)C1=O` (stereo not given), the GI50 is 5.81 µM in the experiment with BT-549 breast; 2.85 µM in the experiment with LOX IMVI melanoma; 3.15 µM in the experiment on 786-0 renal; 1.98 µM in the experiment with T-47D breast; 0.985 µM in the experiment on SR leukemia; 2.5 µM in the experiment with ACHN renal. Also, the GI50 was 2.03 µM with NCI/ADR-RES ovarian, 1.28 µM with HS 578T breast, 2.09 µM with SF-268 CNS and 2.3 µM in the experiment with MDA-MB-231 breast. Further, the TGI in the experiment on BT-549 breast is 53.4 µM; in the experiment on LOX IMVI melanoma it was 15.8 µM; in the experiment with 786-0 renal, greater than 100 µM; in the experiment on T-47D breast it was 57.6 µM; with SR leukemia it was greater than 100 µM; in the experiment with ACHN renal, 67.4 µM. Moreover, the TGI is 6.65 µM with NCI/ADR-RES ovarian, 6.64 µM in the experiment on HS 578T breast, greater than 100 µM in the experiment with SF-268 CNS and 19.9 µM in the experiment with MDA-MB-231 breast.

In the case of `CCc1cccc(C(C)C)c1NC(=O)C(=O)C1C(=O)Nc2ccccc2S1=O` (stereo not given), the TGI in the experiment on BT-549 breast, in the experiment on LOX IMVI melanoma, with 786-0 renal, in the experiment on T-47D breast, in the experiment on SR leukemia and in the experiment on ACHN renal was greater than 100 µM throughout. The TGI in the experiment with NCI/ADR-RES ovarian, in the experiment on HS 578T breast, in the experiment on SF-268 CNS and in the experiment with MDA-MB-231 breast was greater than 100 µM throughout.

Turning to `CN(Cc1ccccc1)Cn1ccnc1`, the TGI was greater than 100 µM in the experiment with BT-549 breast; greater than 100 µM with LOX IMVI melanoma; greater than 100 µM with 786-0 renal; greater than 100 µM in the experiment on T-47D breast; greater than 66.8 µM in the experiment on SR leukemia; greater than 100 µM in the experiment on ACHN renal. For the same molecule, the TGI in the experiment on NCI/ADR-RES ovarian is greater than 100 µM; with HS 578T breast it was greater than 100 µM; in the experiment with SF-268 CNS it was greater than 100 µM; in the experiment on MDA-MB-231 breast it was 98.1 µM.

Turning to `O=C(O)c1cc(-c2ccc3cc4c(cc3c2)OCO4)nc2ccccc12`, the TGI was greater than 100 µM in the experiment with BT-549 breast; greater than 100 µM with LOX IMVI melanoma; greater than 100 µM in the experiment on 786-0 renal; greater than 100 µM in the experiment with T-47D breast; 88.9 µM in the experiment on SR leukemia; greater than 100 µM with ACHN renal. The TGI in the experiment on NCI/ADR-RES ovarian, with HS 578T breast, with SF-268 CNS and in the experiment with MDA-MB-231 breast was greater than 100 µM in each case.

For `O=C1NC(=C(Cl)Cl)/C(=N/S(=O)(=O)N2CCCCC2)N1`, the GI50 is 2.33 µM with BT-549 breast; 1.86 µM in the experiment on LOX IMVI melanoma; 2.79 µM in the experiment with 786-0 renal; 5.94 µM with T-47D breast; 1.5 µM in the experiment with SR leukemia; 1.96 µM in the experiment with ACHN renal. Also, the GI50 is 3.87 µM in the experiment with NCI/ADR-RES ovarian, 3.18 µM with HS 578T breast, 2.43 µM in the experiment with SF-268 CNS and 1.85 µM in the experiment on MDA-MB-231 breast. Further, the TGI with BT-549 breast worked out at 5.62 µM; in the experiment on LOX IMVI melanoma it was 3.58 µM; in the experiment on 786-0 renal it was 7.74 µM; with T-47D breast, 64.5 µM; in the experiment on SR leukemia, 3.89 µM; in the experiment with ACHN renal, 3.42 µM. Also, the TGI stood at 29.2 µM in the experiment on NCI/ADR-RES ovarian, 10.7 µM in the experiment on HS 578T breast, 6.53 µM in the experiment with SF-268 CNS and 3.42 µM in the experiment on MDA-MB-231 breast.

For `COc1ccc(/C=C\c2cc(OC)c(OC)c(OC)c2)cc1OCC(=O)Nc1nc2ccc(F)cc2s1`, the GI50 in the experiment on BT-549 breast is 16.7 µM; in the experiment with LOX IMVI melanoma, 3.23 µM; in the experiment with 786-0 renal it was 7.12 µM; in the experiment on T-47D breast, 3.39 µM; in the experiment with SR leukemia, 2.19 µM; with ACHN renal, 3.33 µM. In addition, the GI50 with NCI/ADR-RES ovarian is 2.55 µM; in the experiment with HS 578T breast, greater than 100 µM; with SF-268 CNS, 7.23 µM; in the experiment with MDA-MB-231 breast it was 9.34 µM. The TGI in the experiment on BT-549 breast is greater than 100 µM; with LOX IMVI melanoma, greater than 100 µM; in the experiment with 786-0 renal it was greater than 100 µM; in the experiment with T-47D breast it was 68.5 µM; with SR leukemia it was greater than 100 µM; in the experiment on ACHN renal, greater than 100 µM. For the same molecule, the TGI in the experiment on NCI/ADR-RES ovarian, in the experiment on HS 578T breast, with SF-268 CNS and in the experiment on MDA-MB-231 breast was greater than 100 µM in each case.
